System: Male Sprague-Dawley rats trained for cocaine-CPP
Experiment: Cocaine-CPP memory retrieval test, PJ-34 infused before testing
Format: in vivo, rat
Conditions: intra-CeA infusion, p<0.01

With `CN(C)CC(=O)Nc1ccc2[nH]c(=O)c3ccccc3c2c1.Cl` [PJ-34, N-(6-Oxo-5,6-dihydrophenanthridin-2-yl)-(N,N-dimethylamino)acetamide hydrochloride] the “Preference for the cocaine compartment” value (50 microM, 1.2 microl, tested 30 min after infusion, vs vehicle, FIG. 4A) was “abolished”, the “Abolished preference for the cocaine compartment in post-conditioning test” value (“Abolished preference” below) (test 24 hours later) was “persisted” and the “Abolished preference” value (test 7 days later) was “persisted”. The “Abolished preference” value (test 14 days later) was “persisted”.
